Results on 50 molecules are retold here after PubChem BioAssay AID179 (DTP/NCI, 2004).

SMILES strings stand for the structures. Calls of active or inactive are those of the source.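 Rule for the calls: active = compounds giving half or more protection of infected cells from virus-caused growth loss, again on retest; inactive = the rest.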

The test system of this assay is CEM cells HIV-1 protection, formazan growth assay. The assay can be described thus: NCI AIDS Antiviral Assay. The following applies: for IC50: measured here: growth of uninfected CEM cells. An outline of the steps: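 Five concentrations of each compound were applied to infected and uninfected human CEM cells. Protection from HIV-1 was judged from growth measured with a soluble formazan assay.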

`Cc1ccc(C(=O)C2CC3(CCC2(O)c2ccc(C)cc2)CC(=O)Nc2ccccc2C3=O)cc1` (stereo unspecified): the EC50 was above 200 µM and the IC50 worked out at 89.1 µM. For `CCOC(=O)c1nc2ccc(C(F)(F)F)cc2nc1Oc1ccc(C(=O)OC)cc1`, the EC50 is above 200 µM and the IC50 was above 200 µM. As to `CN(C(=O)C12C3C4C1C1C2C3C41C(N)=O)C(C)(C)C` (stereo unspecified), the EC50 was above 52.5 µM and the IC50 is above 52.5 µM. For the molecule `CCn1cc(C(=O)O)c(=O)c2cc(F)c(-n3cccc3)cc21`, the outcome was inactive.

`CN(C)CCCOc1c(Br)cc(CCN(C)C)cc1Br`: the result was inactive. As for `N#C/C(=C\NC(=S)NC1CCCCC1)c1nc2ccccc2s1`, the EC50 was above 200 µM and the IC50 came out at 41.7 µM. Turning to `Cn1nc2ccc([N+](=O)[O-])cc2[n+]1[O-]`, the EC50 is above 200 µM and the IC50 came out at 155 µM. With `O=C(O)C1NCCc2c1[nH]c1ccccc21` (stereo unspecified), the result was inactive. For the molecule `COc1ccc(-c2cc(=O)c3c(O)cc(C)cc3o2)cc1OC`, the EC50 is above 200 µM and the half-maximal inhibitory concentration (IC50) was above 200 µM. Consider `CCC[CH2][Sn]1([CH2]CCC)[O]CC(C)[O]1` (stereo unspecified), for which the result was inactive. `C/C(C=O)=N\Nc1cc(C)c2ccccc2n1`: the EC50 was above 200 µM and the 50% inhibitory concentration (IC50) turned out to be 9.55 µM. Taken in the same sequence, the figures for `CCOCCOCCOCOCCOCCOCC` were above 200 µM and above 200 µM. Consider `CC(=O)Nc1cc(OCC(=O)O)ccc1S(=O)(=O)c1ccc(OCC(=O)O)cc1NC(C)=O`, for which the EC50 is above 200 µM and the IC50 is above 200 µM. `Cc1nn(-c2ccccn2)c2ncnc(N)c12`: the EC50 is above 200 µM and the IC50 is 162 µM. In the case of `COC(=O)c1cc(C(=CC(=O)N[C@H]2CC[C@]3(C)C4CC[C@]5(C)[C@@H](C(C)CCCC(C)C)CC[C@H]5C4CC[C@H]3C2)c2cc(Cl)c(OC)c(C(=O)OC)c2)cc(Cl)c1OC` (stereo partly specified), the EC50 was above 100 µM and the IC50 is above 100 µM.

Consider `CCCCCC(/C=C/[C@@H]1CC(=O)C[C@H]1O[Si](C)(C)C(C)(C)C)OCOCCOC` (stereo partly specified), for which the EC50 is 5.75 µM and the IC50 stood at 7.59 µM. As to `CCOC(=O)C(C)NC(=O)N(C)C12CC3CC(CC(C3)C1)C2` (stereo unspecified), the EC50 is above 200 µM and the IC50 was 151 µM.

Regarding `COc1cc(Br)c(-c2coc3c(OC)c(OC)ccc3c2=O)cc1OC`, the EC50 was above 50.1 µM and the half-inhibitory concentration (IC50) is above 50.1 µM. For the molecule `CCN(CC)CC(=O)NC1c2ccccc2Oc2c(C)cccc21` (stereo unspecified), the EC50 is above 288 µM and the concentration for half-maximal inhibition (IC50) was 145 µM. In the case of `COC(=O)CCc1ccc(CCC(=O)OC)cc1`, the EC50 is above 200 µM and the IC50 was above 200 µM.

Turning to `O=C1C(=Cc2ccc([N+](=O)[O-])cc2)C(=O)c2ccccc21`, the EC50 is above 49 µM and the IC50 worked out at 11.7 µM.

Take `CCCCNC(=O)C1C2C=CC(O2)C1C(=O)O` (stereo unspecified): the EC50 was above 200 µM and the IC50 was above 200 µM. As for `COc1ccc(/C=N/Nc2nc3ccccc3c(=O)n2-c2ccccc2)cc1`, the EC50 is above 200 µM and the IC50 was above 200 µM.

On to `O=C(O)c1cc(C(=CCCBr)c2cc(Cl)c(O)c(C(=O)O)c2)cc(Cl)c1O`, for which the EC50 was 117 µM and the IC50 came to 219 µM. `CC(C)CC1=[N+]=C(NC#N)N=C(CCC(=O)Nc2ccccc2[N+](=O)[O-])C1`: the EC50 was above 676 µM and the IC50 is above 676 µM. With `Cn1ccnc1Cn1cc(-c2cccc(-c3cn[nH]c3)c2)cn1`, the result was inactive. As for `CC1NCC(O)C(O)C1O` (stereo unspecified), the EC50 is above 49 µM and the IC50 is above 49 µM. On to `CCOC(=O)[C@@]12C3C=CC(CC3)[C@]1(C(=O)c1ccccc1)C(=O)C(=O)N2c1ccccc1` (stereo partly specified), for which the EC50 is above 200 µM and the IC50 came out at 110 µM.

For `Cc1cc(C)n(-c2c(O)ccc(O)c2-n2nc(C)cc2C)n1`, the EC50 is above 229 µM and the IC50 came to 120 µM. For `C[C@]12CC[C@@H]3c4ccc(OS(N)(=O)=O)cc4CC[C@H]3[C@@H]1CCC2=O`, the result was inactive. `Cn1c(=O)cc(CC(=O)O)c2ccccc21`: the EC50 was above 200 µM and the IC50 was above 200 µM.

As to `COc1cccc(CCn2c(N)c(-c3cc(Cl)cc(Cl)c3)c3ccc([N+](=O)[O-])cc3c2=O)c1`, the EC50 was above 200 µM and the IC50 turned out to be 3.39 µM. For the molecule `CCOP(C)(=O)C(Cc1c[nH]c2ccccc12)C(=O)O` (stereo unspecified), the EC50 was above 200 µM and the IC50 is above 200 µM.

On to `CNC(=O)c1cc(NC(=O)N(CCC#N)CCN(C(=O)N[C@@H](Cc2ccccc2)C(=O)N[C@@H](CC(C)C)C(=O)NC)c2ccccc2)ccc1OC`, for which the EC50 is above 200 µM and the IC50 amounted to 32.4 µM. Taken in the same sequence, the figures for `S=c1[nH]c2cccc3c2n1C[C@@H]1CCCN1C3` were above 32.4 µM and 17 µM. Taken in the same sequence, the figures for `CN1C(=O)c2cnc3ccccc3c2C1(O)c1ccccc1` (stereo unspecified) were above 200 µM and above 200 µM. With `O=C1C(c2ccccc2)=C(c2ccccc2)C(c2ccc(-c3ccc(C4=C(c5ccccc5)C(=O)C(c5ccccc5)=C4c4ccccc4)cc3)cc2)=C1c1ccccc1`, the EC50 was above 3.55 µM and the IC50 was above 3.55 µM. As for `COc1ccc(C(=O)C(C(=O)C(=O)Nc2nc3ccc(OC)cc3s2)c2ccc(OC)cc2)cc1` (stereo unspecified), the EC50 is above 38 µM and the IC50 is above 38 µM. Take `[N-]=[N+]=Nc1c(C=O)c(=O)n(-c2ccccc2)c2ccccc12`: the EC50 was above 200 µM and the IC50 is 21.9 µM. On the same counts, the results for `COC(=O)c1c[nH]c2c1-c1cc(C(=O)OCc3ccccc3)n(S(=O)(=O)c3ccc(C)cc3)c1C(=O)C2=O` are above 200 µM and 3.72 µM. Taken in the same sequence, the figures for `Cc1cn(C2CC(Sc3ccccc3)C(CO)O2)c(=O)[nH]c1=O` (stereo unspecified) were above 200 µM and above 200 µM. `COc1cc(NS(C)(=O)=O)ccc1Nc1c2ccccc2nc2c1[nH]c1ccc(NC3OC(CO)C(O)C(O)C3O)cc12` (stereo unspecified): the EC50 is above 0.12 µM and the IC50 is 0.0468 µM.

As to `N#C/C(=C1/Sc2c(nc[nH]c2=O)N1c1ccccc1)c1nc2ccccc2[nH]1`, the EC50 was above 3.8 µM and the IC50 is above 3.8 µM. Turning to `NC(=O)c1ncn2c(=O)n(CCCl)nnc12`, the EC50 is above 1020 µM and the IC50 came to 24.5 µM.

`CCOS(=O)(=O)c1ccc(-c2c3nc(c(-c4ccc(S(=O)(=O)OCC)cc4)c4ccc([nH]4)c(-c4ccc(S(=O)(=O)OCC)cc4)c4nc(c(-c5ccc(S(=O)(=O)OCC)cc5)c5ccc2[nH]5)C=C4)C=C3)cc1`: the EC50 is above 100 µM and the IC50 was above 100 µM. With `O=C1CCC(c2ccccc2)CCN1` (stereo unspecified), the outcome was inactive.

With `Cc1ccc2cc(-c3ccccc3)c3ccc(C)nc3c2n1.Cc1ccc2cc(-c3ccccc3)c3ccc(C)nc3c2n1.O=C1OC(C(O)C[O-])C(O)=C1O.[Cu+]`, the EC50 is above 25.1 µM and the IC50 is 1.29 µM.

As to `CCN1CC2(COC)C(O)CC(OC)C34C5CC6(O)C(OC)C=C(C5C6OC(=O)c5ccc(OC)c(OC)c5)C(C(OC)C23)C14` (stereo unspecified), the outcome was inactive. For the molecule `CC(C)N1CC2CC(CN(C(=O)c3ccc(Cl)cc3)C2)C1`, the EC50 is above 427 µM and the IC50 is above 427 µM. Consider `CCOC(=O)NC(=O)c1cn(CCN2CCN(c3ncnc4nc[nH]c34)CC2)c(=O)[nH]c1=O`, for which the outcome was inactive.

As usually defined, the EC50 is the concentration needed to bring the measured effect to its halfway point. Usually IC50 stands for the concentration at which inhibition is half-maximal. A low value points to greater potency.
